What was measured:
D1 (h) Dopamine [1] = molecular target: T1, D1 (h) Dopamine (Homo sapiens, UniProt P21728); test: Cell-based functional GPCR assay, antagonist effect (cAMP); conditions: read-out: % Inhibition of Control Agonist Response
Protocol: (§1) A functional GPCR cell-based assay presents readouts of multiple second messengers including cAMP for Gi and Gs-coupled receptors and IP1 and IP3/calcium flux for Gq-coupled receptors. Functional assays were conducted at Eurofins Cerep (Le Bois I’Eveque, France) using transected cells expressing human cloned receptors. The in-house functional assay protocol (https://www.eurofinsdiscoveryservices.com/cms/cms-content/services/in-vitro-assays/gpcrs/functional/) and experimental conditions are shown in Supplementary Table S1. Stable cell lines expressing recombinant GPCRs were used in this study.
(§2) . Following incubation, cells were lysed and a fluorescence acceptor (D2-labeled cAMP) and fluorescence donor (anti-cAMP antibody with europium cryptate) were added. After 60 min at room temperature, fluorescence transfer was measured at λex = 337 nm and λem = 620 and 665 nm using a microplate reader (Envison, Perkin Elmer, Waltham, MA, USA). Cyclic AMP concentration was determined by dividing the signal measured at 665 nm by that measured at 620 nm (ratio). […].
(§3) Cellular agonist effect was calculated as the percentage of the control response to a known reference agonist for each target and the cellular antagonist effect was calculated as the percentage inhibition of the control reference agonist response for each target. Results are expressed as a percentage of control agonist response or inverse agonist response (measured response/control response × 100) and as percent inhibition of control agonist response [100 − (measured response/control response × 100)] obtained in the presence of the eckol.

D4 (h) Dopamine [2] = molecular target: T2, D4 (h) Dopamine (Homo sapiens, UniProt P21917); test: as above; conditions: read-out: % Inhibition of Control Agonist Response
T2 sequence (P21917 1-419): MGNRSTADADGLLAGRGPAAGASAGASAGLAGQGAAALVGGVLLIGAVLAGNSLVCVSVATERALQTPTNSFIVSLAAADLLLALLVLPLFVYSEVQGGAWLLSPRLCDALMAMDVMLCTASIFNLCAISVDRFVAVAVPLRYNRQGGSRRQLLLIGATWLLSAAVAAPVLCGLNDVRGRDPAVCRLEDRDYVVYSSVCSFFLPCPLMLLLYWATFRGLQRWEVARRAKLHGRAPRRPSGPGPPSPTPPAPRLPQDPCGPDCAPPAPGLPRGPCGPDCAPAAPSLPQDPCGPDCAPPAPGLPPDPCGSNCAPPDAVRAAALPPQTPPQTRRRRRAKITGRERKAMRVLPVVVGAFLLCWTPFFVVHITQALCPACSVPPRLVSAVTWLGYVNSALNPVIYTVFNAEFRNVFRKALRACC
Protocol: as §1, §2, §3

D3 (h) Dopamine [3] = molecular target: T3, D3 (h) Dopamine (Homo sapiens, UniProt P35462); test: as above; conditions: read-out: % Inhibition of Control Agonist Response
T3 sequence (P35462 whole entry): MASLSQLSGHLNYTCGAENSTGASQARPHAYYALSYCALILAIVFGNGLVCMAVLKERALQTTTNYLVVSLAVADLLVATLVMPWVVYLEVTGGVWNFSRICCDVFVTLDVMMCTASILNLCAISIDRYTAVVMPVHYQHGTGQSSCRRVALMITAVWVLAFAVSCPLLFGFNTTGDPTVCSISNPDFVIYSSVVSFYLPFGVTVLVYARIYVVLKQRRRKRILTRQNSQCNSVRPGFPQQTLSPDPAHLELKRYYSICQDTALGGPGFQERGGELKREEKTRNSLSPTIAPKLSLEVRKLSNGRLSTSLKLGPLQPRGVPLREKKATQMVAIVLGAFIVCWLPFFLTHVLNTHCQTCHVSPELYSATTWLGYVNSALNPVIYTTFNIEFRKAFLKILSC
Protocol: as §1, §2, §3

[4] = molecular target: T4, M5 (h) Acetylcholine (muscarinic) (Homo sapiens, UniProt P08912); test: Cell-based functional GPCR assay, antagonist effect; conditions: read-out: % Inhibition of Control Agonist Response
T4 sequence (P08912 1-532): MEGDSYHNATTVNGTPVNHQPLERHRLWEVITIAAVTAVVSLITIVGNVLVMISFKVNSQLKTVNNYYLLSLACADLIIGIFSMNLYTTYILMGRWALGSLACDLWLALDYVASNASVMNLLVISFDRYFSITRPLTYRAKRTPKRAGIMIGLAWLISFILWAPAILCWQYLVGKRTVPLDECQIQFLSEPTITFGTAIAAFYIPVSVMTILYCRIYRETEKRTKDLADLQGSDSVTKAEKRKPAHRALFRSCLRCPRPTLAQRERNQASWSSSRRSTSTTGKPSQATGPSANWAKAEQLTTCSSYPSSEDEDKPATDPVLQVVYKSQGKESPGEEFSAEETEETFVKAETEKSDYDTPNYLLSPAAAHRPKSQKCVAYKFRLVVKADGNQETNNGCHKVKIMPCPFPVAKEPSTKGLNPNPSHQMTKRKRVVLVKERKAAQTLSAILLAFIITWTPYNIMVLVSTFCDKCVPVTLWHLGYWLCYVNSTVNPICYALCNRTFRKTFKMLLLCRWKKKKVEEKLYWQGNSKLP
Protocol: as §1
(§4) The method used to quantify the intracellular [Ca^2+] level varied slightly according to receptor type. However, in general, cells expressing different receptors (Table 1) were transfected with an expression vector encoding a receptor polypeptide and were allowed to grow for a time period sufficient for that receptor to be expressed. A fluorescent probe (Fluo8 Direct, Invitrogen, Carlsbad, CA, USA) mixed with probencid in HBSS buffer (Invitrogen, Carlsbad, CA, USA) supplemented with […] (Invitrogen) (pH 7.4) was then added to each well and allowed to equilibrate with the cells for 60 min at 37 °C. Thereafter, assay plates were positioned in a microplate reader (CellLux, PerkinElmer, Waltham, MA, USA) and eckol (25 and 50 μM), reference agonist, or HBSS buffer (basal control) were added, and measurements of the change in fluorescence intensity, which varies proportionally to the free cytosolic Ca^2+ ion concentration, were taken. Standard reference control (agonist and antagonist) values are presented in Table 1, and controls were included in each experiment at several concentrations to generate a concentration-response curve from which to calculate EC50 values.
as §3

5-HT1A (h) Serotonin [5] = molecular target: T5, 5-HT1A (h) Serotonin (Homo sapiens, UniProt P08908); test: as above; conditions: read-out: % Inhibition of Control Agonist Response
T5 sequence (P08908 1-422): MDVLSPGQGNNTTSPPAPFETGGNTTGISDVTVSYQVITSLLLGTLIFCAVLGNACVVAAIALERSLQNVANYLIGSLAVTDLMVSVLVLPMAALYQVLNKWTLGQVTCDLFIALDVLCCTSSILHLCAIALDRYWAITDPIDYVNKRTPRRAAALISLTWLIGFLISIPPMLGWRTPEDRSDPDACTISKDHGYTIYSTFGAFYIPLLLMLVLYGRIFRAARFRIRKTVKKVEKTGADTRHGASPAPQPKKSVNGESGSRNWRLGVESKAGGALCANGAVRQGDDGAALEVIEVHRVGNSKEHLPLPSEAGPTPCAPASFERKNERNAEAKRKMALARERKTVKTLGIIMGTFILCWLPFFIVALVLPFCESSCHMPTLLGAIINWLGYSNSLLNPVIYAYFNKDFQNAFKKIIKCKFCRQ
Protocol: as §1, §4, §3

[6] = molecular target: T6, V1A (h) Vasopressin/Oxytocin (Homo sapiens, UniProt P37288); test: as above; conditions: read-out: % Inhibition of Control Agonist Response
T6 sequence (P37288 whole entry): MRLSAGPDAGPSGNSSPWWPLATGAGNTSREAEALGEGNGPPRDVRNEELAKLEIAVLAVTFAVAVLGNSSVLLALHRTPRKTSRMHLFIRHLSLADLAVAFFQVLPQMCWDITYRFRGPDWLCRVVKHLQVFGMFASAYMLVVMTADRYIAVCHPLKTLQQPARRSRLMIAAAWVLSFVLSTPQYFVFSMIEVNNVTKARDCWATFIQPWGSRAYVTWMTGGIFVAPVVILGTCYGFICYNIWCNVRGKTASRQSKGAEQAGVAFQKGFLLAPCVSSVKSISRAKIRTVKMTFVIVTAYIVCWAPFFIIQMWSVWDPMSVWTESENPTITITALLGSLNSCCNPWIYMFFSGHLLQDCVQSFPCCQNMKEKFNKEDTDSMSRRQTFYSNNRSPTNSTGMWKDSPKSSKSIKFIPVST
Protocol: as §1, §4, §3

NK1 (h) Tachykinin [7] = molecular target: T7, NK1 (h) Tachykinin (Homo sapiens, UniProt P25103); test: as above; conditions: read-out: % Inhibition of Control Agonist Response
T7 sequence (P25103 whole entry): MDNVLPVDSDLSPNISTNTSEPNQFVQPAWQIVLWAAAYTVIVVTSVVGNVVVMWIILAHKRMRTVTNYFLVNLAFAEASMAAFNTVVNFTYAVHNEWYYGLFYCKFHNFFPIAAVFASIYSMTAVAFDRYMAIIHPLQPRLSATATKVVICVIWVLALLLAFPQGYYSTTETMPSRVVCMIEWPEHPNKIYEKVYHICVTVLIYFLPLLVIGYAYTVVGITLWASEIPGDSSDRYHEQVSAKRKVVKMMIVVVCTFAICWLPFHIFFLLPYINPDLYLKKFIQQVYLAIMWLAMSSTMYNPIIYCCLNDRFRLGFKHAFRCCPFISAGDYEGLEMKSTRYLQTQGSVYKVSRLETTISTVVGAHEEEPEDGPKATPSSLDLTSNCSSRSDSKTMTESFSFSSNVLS
Protocol: as §1, §4, §3

[8] = molecular target: T4, M5 (h) Acetylcholine (muscarinic); test: Cell-based functional GPCR assay, agonist effect; conditions: read-out: % of Control Agonist Response
Protocol: as §1, §4, §3

5-HT1A (h) Serotonin [9] = molecular target: T5, 5-HT1A (h) Serotonin; test: Cell-based functional GPCR assay, agonist effect; conditions: read-out: % of Control Agonist Response
Protocol: as §1, §4, §3

[10] = molecular target: T6, V1A (h) Vasopressin/Oxytocin; test: Cell-based functional GPCR assay, agonist effect; conditions: read-out: % of Control Agonist Response
Protocol: as §1, §4, §3

NK1 (h) Tachykinin [11] = molecular target: T7, NK1 (h) Tachykinin; test: Cell-based functional GPCR assay, agonist effect; conditions: read-out: % of Control Agonist Response
Protocol: as §1, §4, §3

D1 (h) Dopamine [12] = molecular target: T1, D1 (h) Dopamine; test: Cell-based functional GPCR assay, agonist effect (cAMP); conditions: read-out: % of Control Agonist Response
Protocol: as §1, §2, §3

D4 (h) Dopamine [13] = molecular target: T2, D4 (h) Dopamine; test: as above
Protocol: as §1, §2, §3

D3 (h) Dopamine [14] = molecular target: T3, D3 (h) Dopamine; test: as above
Protocol: as §1, §2, §3

NK1 (h) Tachykinin [15] = molecular target: T7, NK1 (h) Tachykinin; set-up: method as in Eurofins Panlab; conditions: as reported by Eurofins Panlab, ref Eurofins Panlab, read-out: Reference Antagonists of Respective Target Receptors IC50; cited from earlier work
[16] = 25 μM, read-out: % of Control Agonist Response
[17] = 50 μM, read-out: % of Control Agonist Response
[18] = read-out: EC50 (concentration producing a half-maximal agonist response)

T1 sequence (P21728 whole entry): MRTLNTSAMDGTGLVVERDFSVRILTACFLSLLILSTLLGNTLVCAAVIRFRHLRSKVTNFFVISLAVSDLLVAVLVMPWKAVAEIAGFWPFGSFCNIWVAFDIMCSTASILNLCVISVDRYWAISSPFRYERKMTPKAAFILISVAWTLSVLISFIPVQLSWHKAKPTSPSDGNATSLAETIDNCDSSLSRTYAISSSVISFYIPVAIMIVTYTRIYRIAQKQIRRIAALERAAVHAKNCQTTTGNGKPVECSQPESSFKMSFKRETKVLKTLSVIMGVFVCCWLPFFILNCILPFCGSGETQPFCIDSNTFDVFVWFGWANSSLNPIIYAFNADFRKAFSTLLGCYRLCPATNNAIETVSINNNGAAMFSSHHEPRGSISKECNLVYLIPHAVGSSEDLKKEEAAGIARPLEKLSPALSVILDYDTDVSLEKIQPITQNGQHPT

SMILES: Oc1cc(O)cc(Oc2c(O)cc(O)c3c2Oc2c(O)cc(O)cc2O3)c1 [Eckol, eckol]
- inhibition at 25 µM (D1 (h) Dopamine [1]; 25 μM): 11.6 ± 2.15%
- inhibition at 50 µM (D1 (h) Dopamine [1]; 50 μM): 1.89 ± 1.62%
- inhibition at 25 µM (D4 (h) Dopamine [2]; 25 μM): 1.33 ± 1.7%
- inhibition at 50 µM (D4 (h) Dopamine [2]; 50 μM): -3.33 ± 4.7%
- inhibition at 25 µM (D3 (h) Dopamine [3]; 25 μM): -9 ± 6.98%
- inhibition at 50 µM (D3 (h) Dopamine [3]; 50 μM): -15.1 ± 2.51%
- inhibition at 25 µM ([4]; 25 μM): 1 ± 0.4%
- inhibition at 50 µM ([4]; 50 μM): -4.8 ± 2.25%
- inhibition at 25 µM (5-HT1A (h) Serotonin [5]; 25 μM): 6.17 ± 10.3%
- inhibition at 50 µM (5-HT1A (h) Serotonin [5]; 50 μM): 3.49 ± 4.33%
- inhibition at 25 µM ([6]; 25 μM): -13.5 ± 6.93%
- inhibition at 50 µM ([6]; 50 μM): -4.26 ± 11.1%
- inhibition at 25 µM (NK1 (h) Tachykinin [7]; 25 μM): -11.3 ± 6.37%
- inhibition at 50 µM (NK1 (h) Tachykinin [7]; 50 μM): -4.32 ± 3.33%
- activity at 25 µM ([8]; 25 μM): 0.38 ± 0.1%
- activity at 50 µM ([8]; 50 μM): 0.39 ± 0.46%
- activity at 25 µM (5-HT1A (h) Serotonin [9]; 25 μM): -1.78 ± 0.45%
- activity at 50 µM (5-HT1A (h) Serotonin [9]; 50 μM): -3.04 ± 1.23%
- activity at 25 µM ([10]; 25 μM): -8.91 ± 3.2%
- activity at 50 µM ([10]; 50 μM): -12.5 ± 0.51%
- activity at 25 µM (NK1 (h) Tachykinin [11]; 25 μM): -2.32 ± 0.26%
- activity at 50 µM (NK1 (h) Tachykinin [11]; 50 μM): -2.99 ± 0.21%
- activity at 25 µM (D1 (h) Dopamine [12]; 25 μM): -0.58 ± 2.46%
- activity at 50 µM (D1 (h) Dopamine [12]; 50 μM): -2.77 ± 1.27%
- activity at 25 µM (D4 (h) Dopamine [13]; [16]): 36.5 ± 10.9%
- activity at 50 µM (D4 (h) Dopamine [13]; [17]): 54.7 ± 7.05%
- EC50 (D4 (h) Dopamine [13]; [18]): 42.6 ± 2.54 µM
- activity at 25 µM (D3 (h) Dopamine [14]; [16]): 10.6 ± 4.16%
- activity at 50 µM (D3 (h) Dopamine [14]; [17]): 53.1 ± 6.67%
- EC50 (D3 (h) Dopamine [14]; [18]): 48.6 ± 3.21 µM

SMILES: FC(F)(F)c1cc(CO[C@H]2CCCN[C@H]2c2ccccc2)cc(C(F)(F)F)c1 [L 733,060]
- IC50 (NK1 (h) Tachykinin [15]): 0.00021 µM
